Patent US20100330081A1, “CRIPTO BINDING MOLECULES” (priority 2007, published 2010)

Test system: CT-3 xenograft tumors (primary human colon tumor)
Assay: CT-3 human colon tumor xenograft, combination with 5-fluorouracil (Example 2)
Type: in vivo, mice
Details: 5-fluorouracil alone, single dose 30 mg/kg/inj IV Day 15; study terminated Day 34
Text: Two hundred eighteen (218) female SCID beige (C.B.-17/IcrHsd-Prkcd Lyst Skid Beige) mice (Harlan Sprague Dawley, Madison, Wis.) were started on the study at six to seven weeks of age. Animals were acclimated to the laboratory for at least two days prior to implantation of the tumor. Housing was in ventilated cage racks, and food and water were allowed ad libitum.
CT-3 tumor fragments from a primary human colon tumor were originally obtained from Sera Care, Inc (Oceanside, Calif.) (sent by Peter Chu, Biogen Idec, San Diego). A serially transplanted in-vivo xenograft line was established at Biogen Idec, Inc. and fragments from the third xenograft generation were cryopreserved. […]
On Day −1, the mice were implanted with BioMedics animal ID chips (Model IMI-1000; Seaford, Del.) SC on the left flank. […] Tumor size and body weight measurements were recorded at least twice weekly beginning on […]. When the tumors measured a minimum of 100 mg (Day 15), mice were randomized to treatment and control groups (see Table 2) based on tumor size and excluding tumors with non-progressive growth. […]
Tumor measurements were determined using digital calipers. Body weights and tumor size measurements were recorded on Day 6 and were continued twice weekly until the termination of the study. […]

O=c1[nH]cc(F)c(=O)[nH]1 [5-fluorouracil]
inhibition of tumor growth (change in tumor weight): significantly inhibited tumor growth throughout the study
